The subject of series [1] is present invention protein (A16). The series can be described thus: Metabolism of compounds by the present invention protein (A16), reaction solution, HPLC. The format is in vitro ADME, Streptomyces ornatus IFO 13069t. The settings on record: 12.5 ppm of compound, components A, B, C, 20 μl supernatant fraction of Example 49(2), 30° C. for 10 minutes. The method, then:
There was prepared 100 μl of a reaction solution of 50 mM potassium phosphate buffer (pH7.0) containing 12.5 ppm of compound (XII), 3 mM of β-NADPH (hereinafter, referred to as “component A”) (Oriental Yeast Company), 1 mg/ml of a ferredoxin derived from spinach (hereinafter referred to as “component B”) (Sigma Company), 0.15 U/ml of ferredoxin reductase (hereinafter, referred to as “component C”) (Sigma Company) and 20 μl of the supernatant fraction recovered in Example 49(2). The reaction solution was maintained at 30° C. for 10 minutes. […] Forty microliters (40 μl) of the liquid filtrate (hereinafter, the liquid filtrate derived from the reaction solution containing component A, component B, component C and 20 μl of supernatant fraction recovered in Example 49(2) is referred to as “(XII) metabolism solution (A16);” further, the liquid filtrate derived from the reaction solution containing no component A, no component B, no component C and no supernatant fraction recovered in Example 49(2) is referred to as “(XII) control solution (A16)”) were analyzed on a HPLC under the above analysis condition 1. Compared to the concentration of compound (XII) detected from (XII) control solution (A16), the concentration of compound (XII) detected from (XII) metabolism solution (A16) was lower. […]

The subject of series [2] is Streptomyces catenulae IFO12848. The series can be described thus: Metabolism of compound (II) by a microorganism. The settings on record: compound (II) at 100 ppm, 7 to 8 days at 30° C. It is filed as in vitro ADME. The method, then: (§1) The HPLC for content analysis in Examples 1, 41 and 42 and fraction purification of the compound was conducted under the conditions shown below.
(§2) The various microorganisms shown in Tables 1 and 2 were grown in ISP2 agar medium (1.0% (w/v) malt extract, 0.4% (w/v) yeast extract, 0.4% (w/v) glucose, 2.0% (w/v) agar, pH 7.3). A “loopful” of the each microorganism was added to TGY medium (0.5% (w/v) tryptone, 0.5% (w/v) yeast extract, 0.1% (w/v) glucose, 0.01% (w/v) KH2PO4, pH 7.0) and incubated with shaking at 30° C. for 2 to 4 days. One-tenth milliliter (0.1 ml) of the obtained culture was incubated with shaking in 3 ml of sporulation medium (0.1% (w/v) of meat extract, 0.2% (w/v) tryptose, 1% glucose, pH 7.1) containing compound (II) at 100 ppm for 7 to 8 days at 30° C. Fifty microliters (50 μl) of 2N HCl was added to the resulting culture and this was extracted with 3 ml of ethyl acetate. The obtained ethyl acetate layer was analyzed on the HPLC. The concentration of compound (II) was reduced (column retention time of 23.9 minutes) and new peaks were detected for compounds at retention times of 21.6 minutes and 22.2 minutes (each referred to as metabolite (I) and metabolite (II)).

Series [3] concerns Streptomyces griseus ATCC10137. The series can be described thus: Metabolism of compound (II) by a microorganism. The format is in vitro ADME. The settings on record: compound (II) at 100 ppm, 7 to 8 days at 30° C. Here is the method:
as §1, §2

For series [4], the system named is Streptomyces scabies IFO3111. Kind of series: Metabolism of compound (II) by a microorganism. The format is in vitro ADME. The settings on record: compound (II) at 100 ppm, 7 to 8 days at 30° C. The method, then: as §1, §2
Series [5] deals with present invention protein (A19). The series can be described thus: Detection of the ability to convert compound (II) to compound (III), E. coli pKSN1502F extract. It is filed as in vitro ADME, Streptomyces griseus IFO 13849T. The settings on record: 3 ppm of compound (II) labeled with 14C, components A, B, 10 minutes at 30° C. Here is the method:
(§3) Reaction solutions of 30 μl were prepared and maintained for 10 minutes at 30° C. The reaction solutions consisted of a 0.1M potassium phosphate buffer (pH7.0) containing 3 ppm of compound (II) labeled with ^14C, 2 mM of β-NADPH (hereinafter, referred to as “component A”) (Oriental Yeast Company), 2 mg/ml of a ferredoxin derived from spinach (hereinafter referred to as “component B”) (Sigma Company), 0.1 U/ml of ferredoxin reductase (hereinafter, referred to as “component C”) (Sigma Company) and 23 μl of the supernatant fraction recovered in Example 32(2). Similarly to Example 4(3), the reaction solutions after the maintenance were extracted with ethyl acetate and the extracted layers were TLC analyzed. […] A spot corresponding to compound (III) was detected from the reaction solution containing E. coli pKSN849AF extract. In contrast, such a spot was not detected from the reaction solution containing E. coli pKSN2 extract.
Similarly to Example 32(3), reaction solutions of 30 μl were prepared and maintained for 10 minutes at 30° C. […] The reaction solutions after the maintenance were extracted with ethyl acetate and the extracted layers were TLC analyzed. […] A spot corresponding to compound (III) was detected from the reaction solution containing E. coli pKSN1502F extract. In contrast, such a spot was not detected from the reaction solution containing E. coli pKSN2 extract.

Series [6] concerns present invention protein (A24). Kind of series: Detection of the ability to convert compound (II) to compound (III), E. coli pKSN1589BF extract. It is filed as in vitro ADME, Streptomyces rutgersensis IFO 15875T. The settings on record: 3 ppm of compound (II) labeled with 14C, components A, B, 10 minutes at 30° C. The method, then:
as §3
Similarly to Example 32(3), reaction solutions of 30 μl were prepared and maintained for 10 minutes at 30° C. […] The reaction solutions after the maintenance were extracted with ethyl acetate and the extracted layers were TLC analyzed. […] A spot corresponding to compound (III) was detected from the reaction solution containing E. coli pKSN1589BF extract. In contrast, such a spot was not detected from the reaction solution containing E. coli pKSN2 extract.

The text below walks through data of patent US8293979B2, “Weed controller metabolism proteins, genes, thereof and use of the same” (Sumitomo Chemical Company, Limited, priority 2001, dated 2012).

With `Cn1c(C(F)(F)F)cc(=O)n(-c2cc(Oc3cccnc3OCC(=O)O)c(Cl)cc2F)c1=O` [compound (XII)], the “concentration of the compound detected from metabolism solution (A16) compared to control solution (A16)” value in series [1] was “lower”.
With `C[C@@H](Oc1cc(-n2c(=O)cc(C(F)(F)F)n(C)c2=O)c(F)cc1Cl)C(=O)O` [compound (II)], the “concentration of compound (II)” value was 85.3 ppm in series [2], 65.6 ppm in series [3] and 88.3 ppm in series [4]. In addition, the “spot corresponding to compound (III) labeled with 14C (TLC)” value in series [5] and in series [6] was “detected” each time.
